Data reported in US20140057895A1, “INDAZOLE- AND PYRROLOPYRIDINE-DERIVATIVE AND PHARMACEUTICAL USE THEREOF” (priority 2011, published 2014).
Marks after values point to notes of the source that are not given here.

What was measured:
[1] = tested on: scopolamine and MK801-induced cognitive impairment; experiment: Example 5: Y-maze test, scopolamine and MK801-induced deficits, co-administration with donepezil (Table 102); format: in vivo, ddY mouse
Description: Thus, scopolamine-induced cognitive impairment model, one of the AD-like model, has been used to predict pharmacodynamic signals of putative procognitive compounds, utilizing the acetylcholinesterase inhibitor donepezil for illustration (See, Citations 1 and 2). The present inventors investigated the effect of each compound on reversal of scopolamine-induced deficits in performance of Y-maze test in mice, and they also investigated adjunctive effect of compounds with donepezil on reversal of deficits induced by scopolamine and MK801 in mice.
Used animal: ddY mouse (SLC)
In the experiments, the mice were grouped in the same way using Stat Preclinica (Version 1.03295; Takumi Information Technology Inc.). The selected mice were divided into 5 to 7 groups of 7 to 12 mice using the “completely randomization design by the single variable” program (Analytical program version 1.0.7), with body weight on the testing day. After grouping, p values for Bartlett's test and ANOVA across all groups were greater than 0.2, indicating no significant difference in this parameter among the groups.
The required amount of each compound was weighed and put into a glass homogenizer. The required amount of 0.5% MC (methyl cellulose) solution was added, and each compound was suspended to give a 10 mg/kg dosing suspension.
The required amount of donepezil was weighed and put into a glass homogenizer. The required amount of 0.5% MC solution was added, and donepezil was suspended to give a suspension at concentration of 1 mg/mL (10 mg/kg dosing suspension).
The required amount of scopolamine and MK801 were weighed, and saline was added to it to give 0.3 mg/mL and 0.015 mg/mL solution, respectively.
90 Min before the test, the mice were orally administered each compound, donepezil, and vehicle (0.5% methyl cellulose, 10 mL/kg). After 60 min, memory impairment was induced by administering scopolamine (0.6 mg/kg, s.c.) with (co-administration) or without (mono-administration) MK801 (0.03 mg/kg, s.c.). The control group received saline (2 mL/kg, s.c.) rather than scopolamine and MK801.
The Y-maze used herein is a three-arm maze with equal angles between all arms. The mazefloor and walls were constructed from black acrylic resin. The mice were initially placed within one arm, and the sequence and number of arm entries were recorded manually for each mouse over an 8-min period.
Data were processed and analyzed with Microsoft® Office Excel 2003. The alternation behavior was defined as entries into all three arms on consecutive occasions. The percent alternation behavior in each animal was calculated using the following formula, and rounded to one decimal place.
Alternation behavior(%)=[actual alternation/(total arm entries−2)]×100
Restoration ratio of alternation behavior (%) in each animal was calculated using the following formula, and rounded to one decimal place.
Restoration ratio of alternation behavior in each animal (%)=y Alternation behavior in each animal (%)=x Mean of alternation behavior in vehicle-treated group (group No. 1) (%)=A Mean of alternation behavior in scopolamine-treated group (group No. 2) (%)=B
Data were expressed as the mean of the percent alternation behavior, the number of total arm entries and the restoration ratio of alternation behavior.
Values of Y-maze tests are expressed as mean of alternation behavior (n=7−12).
Alternation behaviors in the scopolamine-treated groups were compared to those in the control groups using Wilcoxon rank sum test (Stat preclinical; Version 1.03295; Takumi Information Technology Inc.) with a two-sided significance level of 0.05.
Restoration of alternation behavior was analyzed using Stat Preclinica. Alternation behaviors in the Donepezil (10 mg/kg, p.o.)-treated group were compared to those in the co-administrated groups of test compounds with donepezil (10 mg/kg, p.o.) using non-parametric Dunnett multiple comparison test (Analytical program version 1.0.2) with a two-sided significance level of 0.05.

human 5-HT4b receptor = target: T1, human 5-HT4b receptor (Homo sapiens, UniProt Q13639); experiment: Test Example 2: Serotonin 4 (5-HT4) receptor agonist activity assay, cAMP HTRF in CHO cells (Table 97); format: cell-based; conditions: cAMP in CHO cells expressing human 5-HT4b receptor, mean value; for Emax: 0.25 h, intrinsic activity, maximal activity of 5-HT defined as 100%, read-out: IA (%); for EC50: concentration showing 50% of IA
T1 construct: expressed in transfected cells; host or cells: CHO cells (G418 selection)
T1 sequence (Q13639 whole entry): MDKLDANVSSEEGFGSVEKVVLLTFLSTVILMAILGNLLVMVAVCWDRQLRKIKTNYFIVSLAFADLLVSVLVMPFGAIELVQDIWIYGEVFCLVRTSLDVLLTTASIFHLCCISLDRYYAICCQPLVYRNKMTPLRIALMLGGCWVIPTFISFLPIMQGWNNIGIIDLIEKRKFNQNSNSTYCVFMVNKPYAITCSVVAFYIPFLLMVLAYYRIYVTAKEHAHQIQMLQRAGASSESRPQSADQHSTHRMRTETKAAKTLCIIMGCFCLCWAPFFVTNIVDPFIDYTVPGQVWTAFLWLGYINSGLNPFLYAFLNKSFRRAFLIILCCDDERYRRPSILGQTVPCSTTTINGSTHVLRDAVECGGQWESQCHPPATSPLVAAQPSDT

[2] = compound 0.1 mg/kg, p.o. co-administered with Donepezil 10 mg/kg, p.o.

| Compound | Alternation behavior (%) ([1]; compound 0.03 mg/kg, p.o. alone) | Alternation behavior (%) ([1]; compound 0.03 mg/kg, p.o. co-administered with Donepezil 10 mg/kg, p.o.) | Alternation behavior (%) ([1]; compound 0.1 mg/kg, p.o. alone) | Alternation behavior (%) [1, 2] | Emax (human 5-HT4b receptor) | EC50 (human 5-HT4b receptor) | Alternation behavior (%) ([1]; compound 0.3 mg/kg, p.o. alone) | Alternation behavior (%) ([1]; compound 0.3 mg/kg, p.o. co-administered with Donepezil 10 mg/kg, p.o.) |
| --- | --- | --- | --- | --- | --- | --- | --- | --- |
| CC(=O)N1CCC(N2CCC(c3nc(-n4nc(C(C)C)c5cccc(F)c54)no3)CC2)CC1.Cl [Example 232, 1-(4-{3-[7-fluoro-3-(propan-2-yl)-1H-indazol-1-yl]-1,2,4-oxadiazol-5-yl}-1,4′-bipiperidin-1′-yl)ethanone hydrochloride] | 46.7% | 48.5% | 48.0^# % | 62.4^$ % | 95% | 2.6 nM | – | – |
| CC(C)c1nn(-c2noc(C3CCN(C4CCN(C(=O)CO)CC4)CC3)n2)c2c(F)cccc12 [Example 242, 1-(4-{3-[7-fluoro-3-(propan-2-yl)-1H-indazol-1-yl]-1,2,4-oxadiazol-5-yl}-1,4′-bipiperidin-1′-yl)-2-hydroxyethanone] | – | – | 51.2^# % | 58.6^$ % | 88% | 2.2 nM | 57.4^# % | 62.5^$ % |
